“And” between values parts separate entries of the source, which are not always exact repeats. Identical values can stand only once.
Columns and labels:
OAT2r [1] = target: T1, OAT2r (Rattus norvegicus, UniProt Q5RLM2); test: intracellular glutamate content of 293 cells expressing OAT2r versus uninduced control cells; format: cell-based; conditions: n=4
T1 construct: expressed in transfected cells
T1 sequence (Q5RLM2 1-535): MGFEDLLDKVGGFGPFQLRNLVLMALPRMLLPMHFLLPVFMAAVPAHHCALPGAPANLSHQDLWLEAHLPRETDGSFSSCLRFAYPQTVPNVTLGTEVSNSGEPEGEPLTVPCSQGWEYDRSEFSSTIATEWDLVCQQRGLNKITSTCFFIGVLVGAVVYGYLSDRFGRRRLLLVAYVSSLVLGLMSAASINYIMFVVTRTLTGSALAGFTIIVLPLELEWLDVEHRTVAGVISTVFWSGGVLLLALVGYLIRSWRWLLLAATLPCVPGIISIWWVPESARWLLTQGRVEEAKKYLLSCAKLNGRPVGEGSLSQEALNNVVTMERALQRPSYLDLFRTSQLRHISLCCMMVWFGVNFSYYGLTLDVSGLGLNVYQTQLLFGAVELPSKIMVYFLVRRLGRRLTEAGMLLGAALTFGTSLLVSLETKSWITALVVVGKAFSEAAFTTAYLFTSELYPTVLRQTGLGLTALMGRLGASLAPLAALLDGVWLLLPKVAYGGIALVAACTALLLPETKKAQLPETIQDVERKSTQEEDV

OAT2h = target: T2, OAT2h (Homo sapiens, UniProt Q9Y694); test: intracellular glutamate content of 293 cells expressing OAT2h versus uninduced control cells; format: cell-based; conditions: n=2
T2 construct: expressed in transfected cells; host or cells: 293 cells (HEK-293), pEBTetD/OAT2h, doxycycline-inducible
T2 sequence (Q9Y694 1-546 isoform Q9Y694-2): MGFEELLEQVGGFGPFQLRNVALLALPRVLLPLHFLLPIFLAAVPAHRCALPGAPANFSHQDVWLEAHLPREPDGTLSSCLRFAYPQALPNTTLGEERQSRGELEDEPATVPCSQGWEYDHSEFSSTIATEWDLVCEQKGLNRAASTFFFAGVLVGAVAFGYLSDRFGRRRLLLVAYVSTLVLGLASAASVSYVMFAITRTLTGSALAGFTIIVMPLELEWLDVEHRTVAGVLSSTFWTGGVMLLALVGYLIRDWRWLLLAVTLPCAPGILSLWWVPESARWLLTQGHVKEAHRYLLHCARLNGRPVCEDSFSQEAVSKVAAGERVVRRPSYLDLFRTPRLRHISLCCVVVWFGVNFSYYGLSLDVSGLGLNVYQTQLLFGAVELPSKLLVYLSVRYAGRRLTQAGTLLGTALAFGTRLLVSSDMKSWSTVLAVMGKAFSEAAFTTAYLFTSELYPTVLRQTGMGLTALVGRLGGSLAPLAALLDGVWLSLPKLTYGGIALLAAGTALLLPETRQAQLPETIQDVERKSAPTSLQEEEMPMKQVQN

[2] = cited from earlier work
OAT2r [3] = target: T1, OAT2r; test: 24 h accumulation in lysates of OAT2r-expressing versus control cells (LC-MS/MS); format: cell-based; conditions: 24 h incubation, compound at 100 μmol/l
Experimental: (§1) A substrate search by LC-MS difference shading was performed with 293 cells stably transfected to express OAT2 from rat. […] To verify that trigonelline is directly transported by OAT2 and not just increased indirectly, initial rates of uptake (1 min, 37° C.) of trigonelline (10 μmol/l) were determined by LC-MS/MS.
With trigonelline as substrate lead, compounds wholly or partly related in structure were analyzed for transport by OAT2 from rat.
After centrifugation (1 min, 16000×g, 20° C.) of thawed lysates, 100 μl of the supernatant was mixed with either 10 μl unlabeled MPP+ iodide (0.5 ng/μl) or biphenyl-4-carboxylic acid (Sigma-Aldrich) as internal standard. Of this mixture, […] were analyzed by LCMS/MS on a triple quadrupole mass spectrometer (4000 Q TRAP, Applied Biosystems, Darmstadt, Germany). […] Atmospheric pressure ionization with positive or negative electrospray was used. For quantification (scan time 150 ms), the optimal collision energy for argon-induced fragmentation in the second quadrupole was determined for each analyte. […] Linear calibration curves were constructed from at least six standards which were prepared using control cell lysates as solvent. Sample analyte content was calculated from the analyte response ratio and the slope of the calibration curve, obtained by linear regression. With LC-MS quantitation, solute content of cell lysates was determined for 4 conditions ([…]): a) transporter expression on, uptake buffer; b) expression off, uptake buffer; c) expression on, substrate in uptake buffer; d) expression off, substrate in uptake buffer. Acute uptake mediated by heterologously expressed carrier was then calculated as (c−a)−(d−b). This approach takes into account endogenous solute content and non-specific uptake. Protein was measured by the BCA assay (Pierce) with bovine serum albumin as standard. The protein content of MS samples was estimated from 3 matched cell dishes.

OAT2h splice variant = OAT2h splice variant (Homo sapiens, UniProt Q9Y694); conditions: 24 h incubation, 100 μmol/l in uptake buffer
Experimental: as §1
After centrifugation (1 min, 16000×g, 20° C.) of thawed lysates, 100 μl of the supernatant was mixed with either 10 μl unlabeled MPP+ iodide (0.5 ng/μl) or biphenyl-4-carboxylic acid (Sigma-Aldrich) as internal standard. Of this mixture, […] were analyzed by LCMS/MS on a triple quadrupole mass spectrometer (4000 Q TRAP, Applied Biosystems, Darmstadt, Germany). […] For quantification (scan time 150 ms), the optimal collision energy for argon-induced fragmentation in the second quadrupole was determined for each analyte. […] Sample analyte content was calculated from the analyte response ratio and the slope of the calibration curve, obtained by linear regression. With LC-MS quantitation, solute content of cell lysates was determined for 4 conditions (paired dishes, incubation time 1 min): a) transporter expression on, uptake buffer; b) expression off, uptake buffer; c) expression on, substrate in uptake buffer; d) expression off, substrate in uptake buffer. Acute uptake mediated by heterologously expressed carrier was then calculated as (c−a)−(d−b). […]

In the case of N[C@@H](CCC(=O)O)C(=O)O [glutamate], the “intracellular glutamate content versus uninduced control cells (factor f)” value (OAT2r [1]) is reported as 0.55±0.11 and the “intracellular glutamate content versus uninduced control cells (factor f)” value (OAT2h) is reported as 0.60±0.09.

In the case of O=C(O)c1cc(=O)[nH]c(=O)[nH]1 [orotic acid], the pKa [2] is given as “≈ 2.4”.

For C[n+]1cccc(C(=O)[O-])c1 [trigonelline], the “increase in OAT2r cell lysates versus control cells (factor f)” value (OAT2r [3]) was 8.1 and 4.7 and the “increase in cell lysates versus control cells (factor f)” value (OAT2h splice variant) was 3.9.
